Measured values reported in patent publication US20070219180A1, “Muscle Relaxtion Accelerator and Therapeutic Agent for Muscular Tissue Diseases Such as Muscle Relaxation Failure” (priority 2004, published 2007).

Key:
[1] = system: male Wistar rats; assay: Experiment 3: left ventricular diastolic function by tissue Doppler imaging; format: in vivo, rat; settings: 0.3 mg/kg i.v. over 30 s then 0.02 mg/kg/min for 20 min
Description: In this experiment on the invention, two 9-week old male Wistar rats weighing 310 and 320 g were used. The rats were anesthetized with 1,000 mg/kg of urethane and 80 mg/kg of α-chloralose by subperitoneal injection, and natural respiration was maintained. In this experiment, 100 mg of the compound was dissolved in 1 ml of dimethylsulfoxide (DMSO) and the resulting DMSO solution was stored at 4° C. Norepinephrine solution was prepared by dissolving 1 mg of norepinephrine in 41 μl of distilled water.
Similarly to Test drug 1, this study was performed at room temperature of 20 to 25° C., and also similarly to Test drug 1, continuous infusion catheters of calcium chloride solution or norepinephrine solution containing calcium chloride were inserted into the right external jugular vein and microchip catheters (SPC-320, Millar) were inserted into the aorta via the right common arteries.
A 1-lead electrocardiogram was recorded, and blood pressure, pulse, and electrocardiogram of the rats were monitored for 15 minutes and allowed to stabilize. In the preparation step, calcium chloride dissolved in 5% dextrose solution was infused into the right external jugular vein for 25 minutes at 16.6 μl/min (9.0 mg/kg/min of calcium chloride).
Secondly, immediate injection (intravenous injection) of a solution containing calcium chloride and norepinephrine without changes in dosage was started via the right external jugular vein at a rate of 40 μg/kg/min. After the start of administration, calcium chloride and norepinephrine were continuously injected in the form of a norepinephrine solution containing calcium chloride. Furthermore, with continuous injection of calcium chloride and norepinephrine (in the form of a norepinephrine solution containing calcium chloride), 0.2 ml of 1% DSMO was administered alone over 30 seconds to the first rat (weight: 310 g) as a control via the right femoral vein, 5 minutes after commencement of intravenous injection of calcium chloride and norepinephrine (in the form of a norepinephrine solution containing calcium chloride); this rat was defined as Control 4. Similarly to Control 4, with continuous injection of calcium chloride and norepinephrine (in the form of a norepinephrine solution containing calcium chloride) 0.2 ml of 1% DSMO solution containing 0.3 mg/kg of the test drug in the invention was administered over 30 seconds to a second rat (weight: 320 g; Test drug 3) via its right femoral vein, followed by administration for 20 minutes at 0.02 mg/kg/min, 5 minutes after intravenous injection of calcium chloride and norepinephrine (in the form of a norepinephrine solution containing calcium chloride). The left ventricular diastolic function of each rat was examined using tissue Doppler ultrasonography. Ultrasonic diagnostic equipment (Toshiba Powervision SSA-380APSK-70LT, Toshiba Corporation) was used and the rats were examined using ultrasound at 10 MHz. Firstly, the precordial region of each rat was shaved, and an ECHO probe was placed on the cardiac apex. The long axis of the left ventricle of the cardiac apex was imaged, a sample volume for pulsed-wave Doppler was established at the base of the posterior mitral leaflet, and the velocity of the left ventricular posterior wall motion [Ea wave (m/sec)] was measured at diastole as the left ventricular diastolic function. In this experiment, the left ventricular diastolic function is defined as the ratio of the velocity of the left ventricular wall motion at diastole before intravenous injection of norepinephrine (before administration; i.e. a normal left ventricular wall) determined using tissue Doppler imaging, or the ratio of the velocity of the left ventricular wall motion at diastole after intravenous injection of norepinephrine (after administration).

[2] = system: male Wistar rats; assay: Experiment 11: protective effect on diastolic dysfunction of the myocardium (compound given before norepinephrine); format: in vivo, rat
Description: This experiment was performed to examine the protective effect of the compound on left ventricular diastolic dysfunction, and the compound was administered 5 minutes before administration of the norepinephrine solution referred to in Experiment 1, in which a calcium solution and a norepinephrine solution were administered after calcium administration for 20 minutes.
In this experiment, the 1,4-benzothiazepine derivative or pharmaceutically acceptable salt thereof was used as the compound.
Eight-week old male Wistar rats weighing 310-320 g were used in the study. The rats were anesthetized with 1,000 mg/kg of urethane and 80 mg/kg of α-chloralose by subperitoneal injection under artificial respiration (SN-480-7, Shinano) using endotracheal intubation. In this experiment, 100 mg of the compound was dissolved in 1 ml of dimethylsulfoxide (DMSO) and the resulting DMSO solution of the compound was stored at 4° C. Norepinephrine solution was prepared by dissolving 1 mg of norepinephrine in 41 μl of distilled water, at an infusion speed of […].
Firstly, continuous infusion catheters of calcium chloride solution or norepinephrine solution containing calcium chloride were inserted into the right external jugular veins of the rats, microchip catheters (SPC-320, Millar) was inserted into the left ventricles via the right common arteries, and the left ventricular end-diastolic pressure was measured. In addition, test drug infusion catheters were inserted into the right femoral veins.
A 1-lead electrocardiogram and the left ventricular pressure were recorded simultaneously on a personal computer via an A/D converter. The left ventricular diastolic pressure was determined as the mean of data measured over 20 heart beats every 5 minutes, when the pressure equivalent to the R wave of the electrocardiogram was defined as the left ventricular diastolic pressure. In the preparation step, blood pressure, pulse, and electrocardiogram of the rats were monitored for 15 minutes and allowed to stabilize, and then 5% dextrose solution containing calcium chloride (at a concentration based on the weight of the rat) was infused into the right external jugular vein for 20 minutes at 16.6 μl/min (12.0 mg/kg/min of calcium chloride).
Secondly, a norepinephrine solution containing calcium chloride without a change in dosage was immediately injected at a rate of 30 μg/kg/min via the right external jugular vein. After the start of administration, calcium chloride and norepinephrine were then continuously injected in the form of a norepinephrine solution containing calcium chloride. With continuous injection of calcium chloride and norepinephrine (in the form of a norepinephrine solution containing calcium chloride) via the right external jugular vein, 0.2 ml of 1% DMSO solution of the solvent used for the test compound was administered over 30 seconds to a rat (weight: 310 g, Control; this animal was not administered the compound) via the right femoral vein, 5 minutes before commencement of injection (intravenous injection) of calcium chloride and norepinephrine (in the form of a norepinephrine solution containing calcium chloride) via the right external jugular vein.
Similarly to the Control, with continuous injection of calcium chloride and norepinephrine (in the form of a norepinephrine solution containing calcium chloride) via the right external jugular vein, 0.2 ml of a 1% DMSO solution containing 0.3 mg/kg of the compound was administered over 30 seconds to a rat (weight: 320 g, defined as Test 14) via the right femoral vein, 5 minutes before commencement of injection (intravenous injection) via the right external jugular vein of calcium chloride and norepinephrine. Furthermore, in this experiment, after the test drug was injected over 30 seconds, a 1:10 dilution of the injected test drug was additionally administered at 10 μl/min from commencement of test drug injection to 15 minutes after the start of administration. […]

COc1ccc2c(c1)CN(C(=O)CCN1CCC(Cc3ccccc3)CC1)CCS2 [the compound, 4-[3-(4-benzylpiperidine-1-yl)propionyl]-7-methoxy-2,3,4,5-tetrahydro-1,4-benzothiazepine]
Ratio of the velocity of the left ventricular wall motion at diastole ([1]; 0 minutes (just before the start of intravenous injection of the test drug)): 1.00 | Ratio of the velocity of the left ventricular wall motion at diastole ([1]; CaCl2 + norepinephrine infusion, 5 minutes after the start of test drug): 1.02 | Ratio of the velocity of the left ventricular wall motion at diastole ([1]; CaCl2 + norepinephrine infusion, 10 minutes after the start of test drug): 1.04 | Ratio of the velocity of the left ventricular wall motion at diastole ([1]; CaCl2 + norepinephrine infusion, 15 minutes after the start of test drug): 1.00 | Ratio of the velocity of the left ventricular wall motion at diastole ([1]; CaCl2 + norepinephrine infusion, 20 minutes after the start of test drug): 1.00 | Ratio of the velocity of the left ventricular wall motion at diastole ([1]; CaCl2 + norepinephrine infusion, 25 minutes after the start of test drug): 0.94 | Ratio of the velocity of the left ventricular wall motion at diastole ([1]; CaCl2 + norepinephrine infusion, 30 minutes after the start of test drug): 0.95 | Ratio of the velocity of the left ventricular wall motion at diastole ([1]; Ea wave relative to before norepinephrine, 5 minutes before test drug (just before the start of norepinephrine), baseline): 1.00 | left ventricular end-diastolic pressure ([2]; Test 14: 0.3 mg/kg i.v. over 30 s 5 min before norepinephrine, then 0.02 mg/kg/min, 25 minutes before (5 minutes before the start of CaCl2), baseline): 7.2 mmHg | left ventricular end-diastolic pressure ([2]; Test 14: 0.3 mg/kg i.v. over 30 s then 0.02 mg/kg/min, 5 minutes after the start of test drug (just before the start of norepinephrine)): 8.0 mmHg | left ventricular end-diastolic pressure ([2]; Test 14: 0.3 mg/kg i.v. over 30 s then 0.02 mg/kg/min, 10 minutes after the start of test drug (5 minutes after the start of norepinephrine 30 μg/kg/min)): 14.5 mmHg | left ventricular end-diastolic pressure ([2]; Test 14: 0.3 mg/kg i.v. over 30 s then 0.02 mg/kg/min, 10 minutes before (10 minutes after the start of CaCl2), baseline): 7.9 mmHg | left ventricular end-diastolic pressure ([2]; Test 14: 0.3 mg/kg i.v. over 30 s then 0.02 mg/kg/min, 15 minutes after the start of test drug (10 minutes after the start of norepinephrine 30 μg/kg/min)): 18.3 mmHg | left ventricular end-diastolic pressure ([2]; Test 14: 0.3 mg/kg i.v. over 30 s then 0.02 mg/kg/min, 20 minutes before (just after the start of CaCl2), baseline): 7.7 mmHg | left ventricular end-diastolic pressure ([2]; Test 14: 0.3 mg/kg i.v. over 30 s then 0.02 mg/kg/min, just before test drug (20 minutes after the start of CaCl2), baseline): 8.1 mmHg
